Test results taken from US12545659B2, “IRAK degraders and uses thereof” (Kymera Therapeutics, Inc., priority 2019, dated 2026).

Target: T1, IRAK4 (Homo sapiens, UniProt Q9NWZ3)
T1 construct: endogenous in cells; host or cells: OCI-LY10
T1 sequence (Q9NWZ3 1-460): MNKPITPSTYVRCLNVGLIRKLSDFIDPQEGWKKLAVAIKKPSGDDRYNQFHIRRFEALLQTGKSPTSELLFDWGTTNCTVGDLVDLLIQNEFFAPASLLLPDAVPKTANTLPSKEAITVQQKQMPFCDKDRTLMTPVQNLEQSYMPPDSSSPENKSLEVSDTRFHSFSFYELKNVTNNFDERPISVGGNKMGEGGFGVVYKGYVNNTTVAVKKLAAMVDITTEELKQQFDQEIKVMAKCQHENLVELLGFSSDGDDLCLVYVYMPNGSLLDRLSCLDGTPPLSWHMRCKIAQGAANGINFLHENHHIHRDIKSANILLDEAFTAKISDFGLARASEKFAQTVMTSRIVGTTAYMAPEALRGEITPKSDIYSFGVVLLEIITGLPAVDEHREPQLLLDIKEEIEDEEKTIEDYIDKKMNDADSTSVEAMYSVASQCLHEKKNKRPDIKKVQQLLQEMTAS
Test: IRAK4 MSD Degradation in OCI-LY10
Type: cell-based
Conditions: OCI-LY10 cells, 4 hrs incubation, read-out: IRAK4 degradation in OCI-LY10 at 4 hrs: DC50
Protocol: Degradation of IRAK4 in OCI-LY10 was quantitatively measured using Meso Scale Discovery technology. […] Compounds were then added to the assay plates with a final top concentration of 1 to 10 μM in a 1:3 dilution series with total of 8 doses. The assay plates were then incubated for 4 to 24 hours at 37° C. under 5% C02. […] To prepare MSD assay plates (Meso Scale Discovery Catalog number L15XA-3), the plates were coated with […] capture antibody (mouse Anti-IRAK4 antibody [2H9], ab119942) in PBS, at 40 μL/well. […] Cell lysates were then added to MSD assay plates and the plates were incubated at room temperature for 1 hour. The plates were then washed 3 times with 150 μL/well TBST buffer and 25 μL/well primary detection antibody (rabbit Anti-IRAK4 antibody [Y279], from Abcam. Catalog number ab32511, 1 μg/mL). The assay plates were then incubated at room temperature for 1 hour, washed 3 times with 150 μL/well TBST buffer and 25 μL/well secondary detection antibody, SULFO-TAG anti-rabbit antibody were added (anti rabbit antibody from Meso Scale Discovery, Catalog number R32AB-1, 1 μg/mL). The assay plates were then incubated at room temperature for 1 hour, washed 3 times with 150 μL/well TBST buffer, and 150 μL/well MSD reading buffer (Meso Scale Discovery catalog number R92TC-2) was added. The plates were then analyzed by a MSD reader (Meso Scale Discovery, Model Quick Plex SQ 120). The data was then analyzed by software Prism 7.0 from GraphPad and the dose-depended IRAK4 degradation were fit using a three-parameter logistic equation to calculate DC50.
The letter codes for IRAK4 […] include: A (<0.05 μM); B (0.05-0.1 μM); C (0.1-0.5 μM); D (0.5-1.0 μM); and E (>1.0 μM).

`Cn1c(=O)n(C2CCC(=O)NC2=O)c2cccc(CCC3CCN(C[C@H]4CC[C@H](n5cc6cc(NC(=O)c7cccc(C(F)(F)F)n7)c(C(F)F)cc6n5)CC4)CC3)c21` (some centres unmarked) [I-94] and `Cn1c(=O)n(C2CCC(=O)NC2=O)c2cccc(OCC3CCN(C[C@H]4CC[C@H](n5cc6cc(NC(=O)c7cccc(C(F)(F)F)n7)c(C(F)F)cc6n5)CC4)CC3)c21` (some centres unmarked) [I-115] cannot be ordered by DC50: < 50 nM for the first, < 50 nM for the second.

`Cn1c(=O)n(C2CCC(=O)NC2=O)c2cccc(C#CCC3CCN(C[C@H]4CC[C@H](n5cc6cc(NC(=O)c7cccc(C(F)(F)F)n7)c(C(F)F)cc6n5)CC4)CC3)c21` (some centres unmarked) [I-95] and `Cn1c(=O)n(C2CCC(=O)NC2=O)c2cccc(C3CN(C[C@H]4CC[C@H](n5cc6cc(NC(=O)c7cccc(C(F)(F)F)n7)c(C(F)F)cc6n5)CC4)C3)c21` (some centres unmarked) [I-104] fall in the same range of DC50: 50 to 100 nM for the first, 50 to 100 nM for the second.

First: COc1cc2nn([C@H]3CC[C@H](CN4CCN(CCc5cccc6c5n(C)c(=O)n6C5CCC(=O)NC5=O)CC4)CC3)cc2cc1NC(=O)c1cccc(C(F)(F)F)n1 (some centres unmarked) [I-96]
Second: COc1cc2nn([C@H]3CC[C@H](CN4CCC5(CC4)CC(Cc4cccc6c4n(C)c(=O)n6C4CCC(=O)NC4=O)C5)CC3)cc2cc1NC(=O)c1cccc(C(F)(F)F)n1 (some centres unmarked) [I-109]
The DC50 of the first is lower: < 50 nM for the first, 50 to 100 nM for the second.

First: Cn1c(=O)n(C2CCC(=O)NC2=O)c2cccc(CCN3C[C@H]4CC[C@@H](C3)N4CC[C@H]3CC[C@H](n4cc5cc(NC(=O)c6cccc(C(F)(F)F)n6)c(C(C)(C)O)cc5n4)CC3)c21 (some centres unmarked) [I-97]
Second: Cn1c(=O)n(C2CCC(=O)NC2=O)c2cccc(CCC3CC4(CCN(C[C@H]5CC[C@H](n6cc7cc(NC(=O)c8cccc(OC(F)(F)F)n8)c(C(C)(C)O)cc7n6)CC5)CC4)C3)c21 (some centres unmarked) [I-108]
The DC50 of the first is lower: < 50 nM for the first, 50 to 100 nM for the second.

`COc1cc2nn([C@H]3CC[C@H](CN4CC(c5ccc6c(c5)n(C)c(=O)n6C5CCC(=O)NC5=O)C4)CC3)cc2cc1NC(=O)c1cccc(C(C)(C)F)n1` (some centres unmarked) [I-98] and `COc1cc2nn([C@H]3CC[C@H](CN4CCC(c5ccc6c(c5)n(C)c(=O)n6C5CCC(=O)NC5=O)CC4)CC3)cc2cc1NC(=O)c1cccc(C(C)(C)F)n1` (some centres unmarked) [I-100] cannot be ordered by DC50: < 50 nM for the first, < 50 nM for the second.

First: Cn1c(=O)n(C2CCC(=O)NC2=O)c2ccc(C3CN(C[C@H]4CC[C@H](n5cc6cc(NC(=O)c7cccc(C(C)(C)F)n7)c(C(F)F)cc6n5)CC4)C3)cc21 (some centres unmarked) [I-99]
Second: Cn1c(=O)n(C2CCC(=O)NC2=O)c2ccc(C3CCN(C[C@H]4CC[C@H](n5cc6cc(NC(=O)c7cccc(C(C)(C)F)n7)c(C(F)F)cc6n5)CC4)CC3)cc21 (some centres unmarked) [I-101]
The DC50 of the first is higher: 50 to 100 nM for the first, < 50 nM for the second.

`COc1cc2nn([C@H]3CC[C@H](CN4CCN(c5ccc6c(c5)n(C)c(=O)n6C5CCC(=O)NC5=O)CC4)CC3)cc2cc1NC(=O)c1cccc(C(F)(F)F)n1` (some centres unmarked) [I-102] and `COc1cc2nn([C@H]3CC[C@H](CN(C)C4CCN(c5ccc6c(c5)n(C)c(=O)n6C5CCC(=O)NC5=O)CC4)CC3)cc2cc1NC(=O)c1cccc(C(F)(F)F)n1` (some centres unmarked) [I-107] cannot be ordered by DC50: < 50 nM for the first, < 50 nM for the second.

`Cn1c(=O)n(C2CCC(=O)NC2=O)c2cccc(C3CCN(C[C@H]4CC[C@H](n5cc6cc(NC(=O)c7cccc(C(C)(C)F)n7)c(C(F)F)cc6n5)CC4)CC3)c21` (some centres unmarked) [I-103] and `Cn1c(=O)n(C2CCC(=O)NC2=O)c2cccc(C3CN(C[C@H]4CC[C@H](n5cc6cc(NC(=O)c7cccc(C(C)(C)F)n7)c(C(F)F)cc6n5)CC4)C3)c21` (some centres unmarked) [I-113] fall in the same range of DC50: 50 to 100 nM for the first, 50 to 100 nM for the second.

`Cn1c(=O)n(C2CCC(=O)NC2=O)c2cccc(CCC3CC4(CCN(C[C@H]5CC[C@H](n6cc7cc(NC(=O)c8cnn9cccnc89)c(C(C)(C)O)cc7n6)CC5)CC4)C3)c21` (some centres unmarked) [I-105] and `CN(C[C@H]1CC[C@H](n2cc3cc(NC(=O)c4cnn5cccnc45)c(N4CCOCC4)cc3n2)CC1)C1CCN(Cc2cccc3c2n(C)c(=O)n3C2CCC(=O)NC2=O)CC1` (some centres unmarked) [I-116] cannot be ordered by DC50: < 50 nM for the first, < 50 nM for the second.

Compared with `CN(C[C@H]1CC[C@H](n2cc3cc(NC(=O)c4cccc(C(F)(F)F)n4)c(C(F)F)cc3n2)CC1)C1CCN(c2ccc3c(c2)n(C)c(=O)n3C2CCC(=O)NC2=O)CC1` (some centres unmarked) [I-106], `COc1cc2nn([C@H]3CC[C@H](CN(C)C4CCC5(CC4)CC(Cc4cccc6c4n(C)c(=O)n6C4CCC(=O)NC4=O)C5)CC3)cc2cc1NC(=O)c1cccc(C(F)(F)F)n1` (some centres unmarked) [I-117] is higher in DC50: < 50 nM for the first, 50 to 100 nM for the second.

First: COc1cc2nn([C@H]3CC[C@H](CN4CCC(c5cccc6c5n(C)c(=O)n6C5CCC(=O)NC5=O)CC4)CC3)cc2cc1NC(=O)c1cccc(C(F)(F)F)n1 (some centres unmarked) [I-110]
Second: COc1cc2nn([C@H]3CC[C@H](CN4CCC(c5cccc6c5n(C)c(=O)n6C5CCC(=O)NC5=O)CC4)CC3)cc2cc1NC(=O)c1cccc(C(C)(C)F)n1 (some centres unmarked) [I-114]
The DC50 of the first is lower: < 50 nM for the first, 50 to 100 nM for the second.

`COc1cc2nn([C@H]3CC[C@H](CN4CC(c5cccc6c5n(C)c(=O)n6C5CCC(=O)NC5=O)C4)CC3)cc2cc1NC(=O)c1cccc(C(F)(F)F)n1` (some centres unmarked) [I-111] and `COc1cc2nn([C@H]3CC[C@H](CN4CC(c5cccc6c5n(C)c(=O)n6C5CCC(=O)NC5=O)C4)CC3)cc2cc1NC(=O)c1cccc(C(C)(C)F)n1` (some centres unmarked) [I-112] fall in the same range of DC50: 50 to 100 nM for the first, 50 to 100 nM for the second.

Same assay, conditions: OCI-LY10 cells, 24 hrs incubation, read-out: IRAK4 degradation in OCI-LY10 at 24 hrs: DC50

`CC(C)(O)COc1cc2nn([C@H]3CC[C@H](CN4CCC5(CC4)CC(CNc4cccc6c4C(=O)N(C4CCC(=O)NC4=O)C6=O)C5)CC3)cc2cc1NC(=O)c1cccc(C(C)(C)F)n1` (some centres unmarked) [I-118] and `CC(C)(O)COc1cc2nn([C@H]3CC[C@H](CN4CCC5(CC4)CC(CCNc4cccc6c4C(=O)N(C4CCC(=O)NC4=O)C6=O)C5)CC3)cc2cc1NC(=O)c1cccc(C(C)(F)F)n1` (some centres unmarked) [I-119] fall in the same range of DC50: 50 to 100 nM for the first, 50 to 100 nM for the second.

`COc1cc2nn([C@H]3CC[C@H](CN4CCC5(CC4)CC(CCNc4cccc6c4C(=O)C(C4CCC(=O)NC4=O)C6=O)C5)CC3)cc2cc1NC(=O)c1ccnc(C)n1` (some centres unmarked) [I-120] and `COc1cc2nn([C@H]3CC[C@H](CN4CCC5(CC4)CC(CCNc4cccc6c4C(=O)N(C4CCC(=O)NC4=O)C6=O)C5)CC3)cc2cc1NC(=O)c1ccc(F)c(C)n1` (some centres unmarked) [I-121] fall in the same range of DC50: 50 to 100 nM for the first, 50 to 100 nM for the second.

`COc1cc2nn(C3CCC(CN4CC5(CCC(CNc6cccc7c6C(=O)N(C6CCC(=O)NC6=O)C7=O)CC5)C4)CC3)cc2cc1NC(=O)c1cccc(C(C)(F)F)n1` (centres unmarked) [I-122] and `COc1cc2nn([C@H]3CC[C@H](CN4CCC5(CC4)CC(CNc4cccc6c4C(=O)N([C@@H]4CCC(=O)NC4=O)C6=O)C5)CC3)cc2cc1NC(=O)c1cccc(C(F)(F)F)n1` [I-130, N-[2-[4-[[2-[[[2-[(3R)-2,6-dioxo-3-piperidyl]-1,3-dioxo-isoindolin-4-yl]amino]methyl]-7-azaspiro[3.5]nonan-7-yl]methyl]cyclohexyl]-6-methoxy-indazol-5-yl]-6-(trifluoromethyl)pyridine-2-carboxamide] fall in the same range of DC50: 50 to 100 nM for the first, 50 to 100 nM for the second.

First: CC(C)(O)c1cc2nn([C@H]3CC[C@H](CN4CCC5(CC4)CC(Nc4cccc6c4C(=O)N(C4CCC(=O)NC4=O)C6=O)C5)CC3)cc2cc1NC(=O)c1cccc(S(F)(F)(F)(F)F)c1 (some centres unmarked) [I-123]
Second: CN(C[C@H]1CC[C@H](n2cc3cc(NC(=O)c4cccc(C(F)(F)F)n4)c(C(C)(C)O)cc3n2)CC1)[C@H]1CC[C@]2(CC1)C[C@H](Nc1cccc3c1C(=O)N(C1CCC(=O)NC1=O)C3=O)C2 (some centres unmarked) [I-124]
The DC50 of the first is higher: 50 to 100 nM for the first, < 50 nM for the second.

`COc1cc2nn([C@H]3CC[C@H](CN4CCC5(CC4)CC(CCNc4cccc6c4C(=O)N(C4CCC(=O)NC4=O)C6=O)C5)CC3)cc2cc1NC(=O)c1ccccn1` (some centres unmarked) [I-125] and `CC1(C)OC(c2cccc(C(F)(F)F)n2)=Nc2cc3cn([C@H]4CC[C@H](CN5CCC6(CC5)CC(Nc5cccc7c5C(=O)N(C5CCC(=O)NC5=O)C7=O)C6)CC4)nc3cc21` (some centres unmarked) [I-127, 4-[[7-[[4-[8,8-Dimethyl-6-[6-(trifluoromethyl)-2-pyridyl]pyrazolo[3,4-g][3,1]benzoxazin-2-yl]cyclohexyl]methyl]-7-azaspiro[3.5]nonan-2-yl]amino]-2-(2,6-dioxo-3-piperidyl)isoindoline-1,3-dione] fall in the same range of DC50: 50 to 100 nM for the first, 50 to 100 nM for the second.

`CN(C[C@H]1CC[C@H](n2cc3cc(NC(=O)c4cccc(C(F)(F)F)n4)c(C(C)(C)O)cc3n2)CC1)[C@H]1CC[C@@]2(CC1)C[C@H](Nc1cccc3c1C(=O)N(C1CCC(=O)NC1=O)C3=O)C2` (some centres unmarked) [I-126] gave a DC50 of 50 to 100 nM.
